Our source for the IC50 values is patent publication US11529341B2, “Bicyclic compounds as inhibitors of PD1/PD-L1 interaction/activation” (JUBILANT PRODEL LLC, priority 2018, dated 2022).

What is called IC50 is the concentration needed to halve the response being measured. Low readings indicate greater potency in that assay, high ones weaker potency in that assay.

Molecules are shown by their SMILES.

The target in this experiment is T1, PD-1/PD-L1 interaction (Homo sapiens, UniProt Q9NZQ7).
T1 construct: Tag1 (undisclosed kit tag); purchased CisBio 63ADK000CPAPEG
T1 sequence (Q9NZQ7 19-238 limits assumed): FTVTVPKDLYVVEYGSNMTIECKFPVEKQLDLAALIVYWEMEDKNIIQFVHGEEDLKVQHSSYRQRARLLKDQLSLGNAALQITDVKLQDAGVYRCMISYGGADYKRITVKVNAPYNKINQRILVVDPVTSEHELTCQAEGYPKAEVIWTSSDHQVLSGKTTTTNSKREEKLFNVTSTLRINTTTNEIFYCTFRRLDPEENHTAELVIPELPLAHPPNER
The experiment is described as follows: PD-1/PD-L1 Homogenous Time-Resolved Fluorescence (HTRF) binding assay (CisBio kit). The following applies: Biochemical PD1/PD-L1 inhibition. The method in brief:
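Tagged PD-L1 and PD-1 proteins preincubated with compound 15 min, then anti-Tag1-Eu3+ donor and anti-Tag2-XL665 acceptor added, 1 h at room temperature. Emission read at 665 and 620 nm; signal expressed as HTRF ratio (665/620)×10^4, loss of signal indicating blocked binding.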
(In general: Time-resolved FRET reads energy transfer from a long-lived donor to a nearby acceptor.)
As to `COc1cc(OCc2cccc(-c3ccccc3)c2C#N)c2c(c1CNCCNC(C)=O)CCC2` [Compound 56, N-(2-(((7-((2-cyano-[1,1′-biphenyl]-3-yl)methoxy)-5-methoxy-2,3-dihydro-1H-inden-4-yl)methyl)amino)ethyl)acetamide], the IC50 is under 100 nM.

For the compound `Cc1c(COc2cc(OCc3cncc(C#N)c3)c(CN3CC4(CC4)C[C@H]3C(=O)O)c3c2CCC3)cccc1-c1ccccc1` [Compound 52, (S)-5-((5-((5-cyanopyridin-3-yl)methoxy)-7-((2-methyl-[1,1′-biphenyl]-3-yl)methoxy)-2,3-dihydro-1H-inden-4-yl)methyl)-5-azaspiro[2.4]heptane-6-carboxylic acid], the IC50 is under 100 nM.

As to `N#Cc1cncc(COc2cc(OCc3cccc(-c4ccccc4)c3C#N)c3c(c2CN2CCC[C@@H]4C[C@@]42C(=O)O)CCC3)c1` (racemic) [Compound 72, rac-(1R,6S)-2-((7-((2-cyano-[1,1′-biphenyl]-3-yl)methoxy)-5-((5-cyanopyridin-3-yl)methoxy)-2,3-dihydro-1H-inden-4-yl)methyl)-2-azabicyclo[4.1.0]heptane-1-carboxylic acid], the IC50 was under 100 nM.

`CC(=O)NCCNCc1c(OCCCCC(=O)O)cc(OCc2cccc(-c3ccccc3)c2C)c2c1CCC2` [Compound 65, 5-((4-(((2-acetamidoethyl)amino)methyl)-7-((2-methyl-[1,1′-biphenyl]-3-yl)methoxy)-2,3-dihydro-1H-inden-5-yl)oxy)pentanoic acid] had an IC50 of under 100 nM.

`Cc1c(COc2cc(OCCCCC(N)=O)c(CN3CCCC[C@H]3C(=O)O)c3c2CCC3)cccc1-c1ccccc1` [Compound 68, (S)-1-((5-((5-amino-5-oxopentyl)oxy)-7-((2-methyl-[1,1′-biphenyl]-3-yl)methoxy)-2,3-dihydro-1H-inden-4-yl)methyl)piperidine-2-carboxylic acid] registered an IC50 of under 100 nM.

Take `Cc1c(COc2cc(OCc3cccc(C#N)c3)c(CNC(CO)(CO)CO)c3c2CCC3)cccc1-c1ccccc1` [Compound 38, 3-(((4-(((1,3-dihydroxy-2-(hydroxymethyl)propan-2-yl)amino)methyl)-7-((2-methyl-[1,1′-biphenyl]-3-yl)methoxy)-2,3-dihydro-1H-inden-5-yl)oxy)methyl)benzonitrile]: the IC50 is under 100 nM.

Compound `COc1nc(OCc2cccc(-c3ccccc3)c2C)c2c(c1CNCCNC(C)=O)CCC2` [Compound 97, N-(2-(((3-methoxy-1-((2-methyl-[1,1′-biphenyl]-3-yl)methoxy)-6,7-dihydro-5H-cyclopenta[c]pyridin-4-yl)methyl)amino)ethyl)acetamide] had a 50% inhibitory concentration (IC50) of under 100 nM.

As to `Cc1c(COc2ccc(CNCC(=O)O)c3c2CCC3)cccc1-c1ccccc1` [Compound 20, ((7-((2-methyl-[1,1′-biphenyl]-3-yl)methoxy)-2,3-dihydro-1H-inden-4-yl)methyl)glycine], the IC50 lay in the range of 100 to 500 nM.
